Measured values: patent EP4635958A1, “PYRIMIDINE-CONTAINING POLYCYCLIC DERIVATIVE INHIBITOR, AND PREPARATION METHOD THEREFOR AND USE THEREOF” (Shanghai Hansoh Biomedical Co., Ltd., priority 2022, dated 2024)
Where a name gives a salt, the structure may show the parent alone. Read-outs that look alike come from different tables or passages of the source.

Tests used:
[1] = test system: human pancreatic cancer cell line (HPAC); experiment: Antitumor efficacy in mouse transplanted tumor model of human pancreatic cancer cell line (HPAC); type: in vivo, mice (BALB/c nude); details: Table 12, HPAC xenograft, 100mpk, PO*BID; for Tumor volume (mm^3, Mean ± SD) Day 0: Day 0 (baseline)
Description: 8-10 week old female conventional immunodeficient mice (BALB/c nude) with a body weight of 18 g-22 g were used as experimental animals, and a transplanted tumor model of human pancreatic cancer cell line (HPAC) was used to conduct in vivo efficacy experiments to test the anti-tumor results of the example compounds after gavage administration.
The example compounds of the present invention, made in house.
A certain amount of the example compound was weighed, and an appropriate amount of 10% vehicle (Solutol HS15) was added. The mixture was stirred on a magnetic stirrer for 0.5 h to formulate a homogeneous suspension at the desired concentration.
Human pancreatic cancer cell line (HPAC) was derived from COBIOER BIOSCIENCES CO., LTD, cultured on DMEM/F12 medium (Gibco, 11330-032) supplemented with 10% fetal calf serum (Gibco, 10091-148), 1×Insulin (51500-056, Gibco) and 10 ng/ml of EGF (PHG0311, Gibco) and observed under a microscope (Thermo Fisher, 311). The cells were routinely passaged when the cells reached 80%-90% confluence in the culture flask. The passaged cells were cultured in a 37°C, 5% CO2 incubator (Thermo Fisher, 311).
Under aseptic conditions, human pancreatic cancer cells (HPAC) in the logarithmic growth phase were harvested using 0.25% trypsin-EDTA (Gibco, 25200-056), washed and resuspended with phosphate buffer. The cell suspension was mixed with Matrigel (Corning, 356234) at a 1 : 1 ratio (v/v) and implanted subcutaneously into the right anterior dorsal region of immunodeficient mice (BALB/c nude). Each mouse was inoculated with 3*10^6 cells in a volume of 100 microliters (µL). After inoculation, when the tumor volume reached 100-200 mm^3, the mice would be evenly randomized into 5 groups based on the tumor size, with 5 mice per group, for in vivo efficacy experiments. The negative control group was the vehicle group.
Mode of administration: The example compounds were administered orally.
Twice a week, the long and short diameters of the tumor were measured using a vernier caliper, and the tumor volume (mm^3) was calculated using the formula: V = 0.5*D*d*d, where D and d are the long and short diameters of the tumor, respectively. The anti-tumor efficacy was determined by dividing the average increase in tumor volume of compound-treated animals by the average increase in tumor volume of untreated animals. The calculation formula for tumor inhibition rate was: When there is no tumor regression, TGI(%) = 100-[(Vt-V0) administration group/(Vt-V0) vehicle control group]*100%. When tumor regression occurs, TGI(%) = [1-(Vt-V0) administration group/V0 vehicle control group]*100%. All animals were euthanized after the experiment.

GP2D = experiment: Inhibition of proliferation of KRAS G12D mutant tumor cell line GP2D (CellTiter-Glo); details: read-out: GP2D IC50
Protocol: Experimental method: When SNU-1, HPAF-II, Panc0403, AsPC-1 or GP2D cells were cultured to the appropriate confluence, and the SNU-1, HPAF-II, Panc0403, AsPC-1 or GP2D cells were collected. The cells were adjusted to the appropriate cell density using complete culture medium, the cell suspension was plated onto a 96-well plate at 90 µL per well, and the plate was placed in the incubator at 37°C and 5% CO2 for adherent culture overnight. Solutions of the compound with different concentrations were formulated using DMSO and culture medium. A vehicle control was set up. […] Then, CellTiter-Glo solution was added, and the obtained mixture was shaken and mixed evenly, incubated in the dark for 10 min, and read with a BioTek Synergy H1 microplate reader. […] Experimental data processing method: The luminescence signal value was used to calculate the inhibition rate. Graphpad Prism software was used to fit the concentration and inhibition rate to a nonlinear regression curve, so as to obtain the IC50 value.

p-ERK in AGS cells = experiment: Inhibition of p-ERK in AGS cells (LANCE Ultra phospho-ERK1/2 kit); type: cell-based; details: read-out: AGS_pERK IC50
Protocol: 1. Experimental objective: The inhibition activity of the example compounds on the phosphorylated ERK level in KRAS G12D mutant cells AGS was determined. 2. Experimental instruments: • 2.1 Instruments: Envison; Pipette (Eppendorf & Rainin) • 2.2 Reagents: AGS cells were purchased from COBIOER BIOSCIENCES CO., LTD, with a catalog number of CBP60476; Phosphorylated ERK1/2 (T202-Y204) LANCE Ultra Cellular Detection Kit was purchased from PerkinElmer, with a catalog number of TRF4000M; RPMI 1640 was purchased from Gibco, with a catalog number of 22400071; FBS was purchased from Gibco, with a catalog number of 10091148; PBS was purchased from Gibco, with a catalog number of 10010023; trypsin was purchased from Gibco, with a catalog number of 25200056; cell culture plates were purchased from Corning Company, with a catalog number of 3610; White opaque OptiPlate™-384 plates were purchased from PerkinElmer, with a catalog number of 6007290. 3. Experimental method: When AGS cells were cultured to appropriate confluence, the AGS cells were collected, and the cell density was adjusted to 4 × 10^5/mL using complete culture medium. The cell suspension was plated onto a 96-well plate at 100 µL per well, and the plate was placed in the incubator at 37°C and 5% CO2 for adherent culture overnight. Solutions of the compound with different concentrations were formulated using DMSO and complete culture medium, and a vehicle control was set up. The solutions of the compound were added to the 96-well plate at 25 µL per well, and the plate was placed in the incubator at 37°C and 5% CO2 for further culture for 2 h. Then, the supernatant of the cell culture plate was discarded, 50 µL of lysis buffer was added to each well, the cells were lysed at room temperature under shaking for 30 min, then placed in a centrifuge and centrifuged at 1000 rpm for 1 min. 15 µL of supernatant was transferred to a 384-well plate, 5 µL of detection mixture was added to each well (Eu-labeled anti-ERK1/2 (T202-Y204) Antibody at a final detection concentration of 0.5 nM and ULight labeled anti-ERK1/2 Antibody at a final detection concentration of 5 nM), centrifuged at 1000 rpm for 1 min, mixed evenly, and reacted at room temperature overnight. The plate was read using Envison and the signal values at the emission wavelengths of 620 nm and 665 nm were detected using a time-resolved fluorescence program. 4. […] Graphpad Prism software was used to fit the concentration and inhibition rate to a nonlinear regression curve, so as to obtain the IC50 value. Table 5: Inhibition activity of the compounds on p-ERK in AGS cells

[2] = Pharmacokinetic determination in rats (IV and PO, plasma, LCMS/MS); type: in vivo, SD rats; details: male SD rats; for AUC(0-inf): read-out: AUCo-∞; for half-life: read-out: T1/2 (converted)
Procedure, shortened: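 Male SD rats (3/group), fasted overnight, dosed PO at 30 mg/kg in 10% Captisol/50 mM citrate pH 5.0 or IV at 1 mg/kg in 5% DMSO/10% Solutol HS15/85% PBS. Jugular plasma (EDTA-2K) sampled predose to 24 h; analysed by LCMS/MS.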

AsPC-1 = experiment: Inhibition of proliferation of KRAS G12D mutant tumor cell line AsPC-1 (CellTiter-Glo); type: cell-based; details: Homo sapiens, ASPC1, about 72 h
Protocol: 1. Experimental objective: The inhibition activity of the example compounds on the proliferation of 5 KRAS G12D mutant cell lines SNU-1, HPAF-II, Panc0403, AsPC-1 and GP2D was determined. 2. Experimental instruments: • 2.1 Instruments: Microplate reader (BioTek Synergy H1); Pipette (Eppendorf & Rainin). • 2.2 Reagents: HPAF-II, PANC0403, AsPC-1 and GP2D were purchased from COBIOER BIOSCIENCES CO., LTD; SNU-1 was purchased from the cell bank of Chinese Academy of Sciences, Cell Titer-Glo was purchased from Promega, with a catalog number of G7573; RPMI 1640 was purchased from Gibco, with a catalog number of 22400089; DMEM was purchased from Gibco, with a catalog number of 11995065; FBS was purchased from Gibco, with a catalog number of 10091148; PBS was purchased from Gibco, with a catalog number of 10010023; trypsin was purchased from Gibco, with a catalog number of 25200056; cell culture plates were purchased from Corning Company, with a catalog number of 3610. 3. Experimental method: When SNU-1, HPAF-II, Panc0403, AsPC-1 or GP2D cells were cultured to the appropriate confluence, and the SNU-1, HPAF-II, Panc0403, AsPC-1 or GP2D cells were collected. The cells were adjusted to the appropriate cell density using complete culture medium, the cell suspension was plated onto a 96-well plate at 90 µL per well, and the plate was placed in the incubator at 37°C and 5% CO2 for adherent culture overnight. Solutions of the compound with different concentrations were formulated using DMSO and culture medium. A vehicle control was set up. The solutions of the compound were added to the 96-well plate at 10 µL per well, and the plate was placed in the incubator at 37°C and 5% CO2 for further culture for about 72 h. Then, CellTiter-Glo solution was added, and the obtained mixture was shaken and mixed evenly, incubated in the dark for 10 min, and read with a BioTek Synergy H1 microplate reader. 4. Experimental data processing method: The luminescence signal value was used to calculate the inhibition rate. Graphpad Prism software was used to fit the concentration and inhibition rate to a nonlinear regression curve, so as to obtain the IC50 value. 5. Experimental results: Table 2: Determination of the inhibition activity of the compounds on the proliferation of KRAS G12D mutant tumor cell line GP2D

[3] = rat, in vivo, IV, 1 mg/kg, overnight fasting, plasma
[4] = rat, in vivo, PO, 30 mg/kg, overnight fasting, plasma

| Compound | Tumor volume (mm^3, Mean ± SD) Day 0 [1] | TGI(%) Day 14 [1] | ΔT/ΔC(%) Day 14 [1] | Tumor volume (mm^3, Mean ± SD) Day 21 [1] | IC50 (GP2D; Homo sapiens, GP2d, 72 h) | IC50 (p-ERK in AGS cells; Homo sapiens, AGS, 2 h) | other results |
| --- | --- | --- | --- | --- | --- | --- | --- |
| 3-chloro-5-((5S,5aS,6R,9S)-5-ethyl-1-fluoro-12-((1-((4-(fluoromethylene)piperidin-1-yl)methyl-d2)cyclopropyl)methoxy-d2)-5a,6,7,8,9,10-hexahydro-5H-4-oxa-3,10a,11,13,14-pentaaza-6,9-methylnaphtho[1,8-ab]hept-2-yl)-4-(trifluoromethyl)aniline [Example 330] | 468 mm^3 | 110.18% | 43.78% | 418 mm^3 |  |  | IC50 (GP2D; proliferation, about 72 h, CellTiter-Glo): 0.17 nM; IC50 (p-ERK in AGS cells; AGS cells, 2 h with compound): 3.8 nM |
| C#Cc1c(F)ccc2cc(O)cc(-c3nc4c5c(nc(OCC6(CN7CCC(=CF)CC7)CC6)nc5c3F)N3C[C@H]5CC[C@H](N5)[C@H]3[C@H](CC)O4)c12 [Example 137, 4-((5S,5aS,6S,9R)-12-((1-((4-(fluoromethylene)piperidin-1-yl)methyl)cyclopropyl)methoxy)-5-ethyl-1-fluoro-5a,6,7,8,9,10-hexahydro-5H-4-oxa-3,10a,11,13,14-pentaaza-6,9-methylnaphtho[1,8-ab]hept-2-yl)-5-ethynyl-6-fluoronaphthalen-2-ol] |  |  |  |  | 0.41 nM | 5.8 nM | F ([2]; PO 30 mg/kg vs IV 1 mg/kg): 9.7%; AUC(0-inf) [2, 3]: 793 ng·h/mL; C0 ([2]; rat, in vivo, IV, 1 mg/kg, overnight fasting, plasma, read-out: C0): 1630 ng/mL; clearance ([2]; rat, in vivo, IV, 1 mg/kg, overnight fasting, plasma, read-out: CL): 21 mL/min/kg; half-life [2, 3]: 11.3 h; AUC(0-inf) [2, 4]: 2110 ng·h/mL; Cmax ([2]; rat, in vivo, PO, 30 mg/kg, overnight fasting, plasma, read-out: Cmax): 271 ng/mL; half-life [2, 4]: 6.2 h; Tmax ([2]; rat, in vivo, PO, 30 mg/kg, overnight fasting, plasma, read-out: Tmax): 4 h |
| [2H]C([2H])([2H])[C@@H]1Oc2nc(-c3cc(O)cc4ccc(F)c(C#C)c34)c(F)c3nc(OCC4(CN5CCC(=NOC)CC5)CC4)nc(c23)N2C[C@H]3CC[C@H](N3)[C@@H]12 [Example 338, 1-((1-((((5S,5aS,6S,9R)-2-(8-ethynyl-7-fluoro-3-hydroxynaphthalen-1-yl)-1-fluoro-5-deuteratedmethyl-5a,6,7,8,9,10-hexahydro-5H-4-oxa-3,10a,11,13, 14-pentaaza-6,9-methylenenaphtho[1,8-ab]heptalen-12-yl)oxo)methyl)cyclopropyl)methyl)piperidin-4-one O-methyloxime formate] |  |  |  |  | 0.34 nM |  | IC50 (p-ERK in AGS cells; Homo sapiens, AGS cells, 2 h with compound): 2.8 nM |
| [2H]C([2H])([2H])[C@@H]1Oc2nc(-c3cc(N)cc(Cl)c3C(F)(F)F)c(F)c3nc(OC([2H])([2H])C4(C([2H])([2H])N5CCC(=NOC)CC5)CC4)nc(c23)N2C[C@H]3CC[C@H](N3)[C@@H]12 [Example 341, 1-((1-((((5S,5aS,6S,9R)-2-(5-amino-3-chloro-2-(trifluoromethyl)phenyl)-1-fluoro-5-(methyl-d3)-5a,6,7,8,9,10-hexahydro-5H-4-oxa-3,10a,11,13,14-pentaaza-6,9-methylnaphtho[1,8-ab]heptene-12-yl)oxy)methyl-d2)cyclopropyl)methyl-d2)piperidin-4-one O-methyloxime] | 469 mm^3 | 161.42% | 18.73% | 180 mm^3 | 0.1 nM | 4.2 nM | IC50 (AsPC-1): 2.6 nM |
